These results are taken from US20260234123A1, “Inhibitors of NLRP3” (Mwyngil Therapeutics, Inc., priority 2023, published 2026).

What is called EC50 is the concentration that produces a half-maximal response.

SMILES strings stand for the structures. Where only a bound is given, the exact number is not on record here.

In the assay the test system is IL1b release THP-1. Kind of assay: IL1b release THP-1 (ELISA). Type of assay: cell-based. As to conditions: Homo sapiens; average EC50; THP-1 cells primed with 1 μg/ml LPS 4 h, stimulated with 10 μM Nigericin 2 h; IL-1β in supernatant by ELISA; read-out: THP 1 IL 1b, EC50. The method, then:
Example A. Primary Assays Used to Determine IL1b Release THP-1 (ELISA)
• Microbiological safety cabinet, classII (NuAire, USA) • CO2 incubator (VWR Science, USA) • Countess Automated Cell Counter (Invitrogen, USA, cat. number C10227) • Centrifuge CM 6M (Elmi, Latvia) • Serological pipettes 2, 5, 10, 25, 50, 100 ml sterile (Santa Cruz Biotechnology, Inc., USA, sc-200277, sc-200279, sc-200281, sc-200283, Sc-213234, sc-516777) • Single and multichannel pipettes 0.2-10 μL, 50-1200 μL (Eppendorf AG-Hamburg, Germany) • 50 mL PP sterile tubes (Greiner, cat. Number 210261).
• RPMI-1640 (PanEco, C330) • Sodium pyruvate (Paneco, cat. number Φ023) • Non-Essential amino acids 50× (Paneco, Φ116) • Essential amino acids 50× (Paneco, Φ115/50) • FBS (Hyclone Laboratories Inc, USA, SV30160.03) • Antibiotic-antimycotic (Gibco, USA, 15240-062) • 2-mercaptoethanol 1000×55 mM (Gibco, USA, 21985-023) • LPS-EB ultrapure (invivogen, cat. number tlrl-3pelps) • Nigericin (Sigma, cat. number N7143) • ELISA kit, IL-1beta (Cat #A-8766, Interleukin-1 beta-EIA-BEST, Vector Best). LPS Preparation (5 mg/ml): • 1. Add 1 ml of endotoxin-free water according manufacturer's protocol • 2. Vortex until complete solubilization • 3. Aliquote and store at […] for long term storage.
• 1. Add methanol to 10 mg of powder to produce the 10 mM Nigericin solution • 2. Vortex until complete solubilization • 3. Store at 4° C.
THP-1 cells were propagated in RPMI-1640 (10% FBS, Antibiotic-antimycotic 1×, non-Essential amino acids 1×, Essential amino acids 1×, Sodium pyruvate 2×, 2-mercaptoethanol 0.05 mM) at 37° C. and at 5% CO2 in an incubator.
• 1. THP-1 cells were spined at 100 g for 5 min in 50 ml tube. • 2. THP-1 cells were resuspended in warm culture medium (w/o FBS, w/o Antibiotic-antimycotic, non-Essential amino acids 1×, Essential amino acids 1×, Sodium pyruvate 2×) to the concentration 1,3×10^6 cells. • 3. THP-1 cells were primed in tube with 1 μg/ml of LPS for 4 h at 37° C. and at 5% CO2 in an incubator. • 4. THP-1 cells were stimulated with 10 μM of Nigericin (Cat #N7143-10 MG, Sigma Aldrich) for 2 h at 37° C. and at 5% CO2 in an incubator. • 5. After the full activation, the supernatant was collected and the levels of IL-1β were assessed via ELISA according manufacturer instructions (Cat #A-8766, Vector Best).
The average EC50 values are shown in Table A, wherein “A” corresponds to EC50: A≤0.5 μM, “B” corresponds to 0.5 μM<EC50≤1.0 μM, “C” 1.0 μM<EC50≤5.0 μM, “D” corresponds to 5.0 μM<EC50≤30 μM and “E” corresponds to EC50>30 μM.
(ELISA stands for enzyme-linked immunosorbent assay.)
On to `CN1CCC[C@@H](Nc2nnc(-c3ccc(C(F)(F)F)c4c3NS(=O)(=O)N4)cc2C(F)(F)F)C1` [Compound 93, 6-[2,2-dioxo-4-(trifluoromethyl)-1,3-dihydro-2lambda6,1,3-benzothiadiazol-7-yl]-N-[(3R)-1-methyl-3-piperidyl]-4-(trifluoromethyl)pyridazin-3-amine], for which the EC50 was 5 to 30 µM. Regarding `Cc1cc(-c2ccc(C(F)(F)F)cc2N)nnc1N[C@@H]1CCCN(C(C)C)C1` [Compound 118, 6-[2-amino-4-(trifluoromethyl)phenyl]-N-[(3R)-1-isopropyl-3-piperidyl]-4-methyl-pyridazin-3-amine], the EC50 is less than 0.5 µM. As to `CCN1CCC[C@@H](Nc2cc(C)c(-c3ccc(C(F)(F)F)cc3NC(=O)C(F)(F)F)nn2)C1` [Compound 116, N-[2-[6-[[(3R)-1-ethyl-3-piperidyl]amino]-4-methyl-pyridazin-3-yl]-5-(trifluoromethyl)phenyl]-2,2,2-trifluoro-acetamide], the EC50 was less than 0.5 µM.

As to `CCN1CCC[C@@H](Nc2ccc(-c3c(C)cc(C(F)(F)F)cc3NS(C)(=O)=O)nn2)C1` [Compound 2, (R)—N-(2-(6-((1-Ethylpiperidin-3-yl)amino)pyridazin-3-yl)-3-methyl-5-(trifluoromethyl)phenyl) methanesulfonamide], the EC50 is 0.5 to 1 µM.

`CCN1CCC[C@@H](Nc2nnc(-c3ccc(C(F)(F)F)cc3NS(=O)(=O)c3c[nH]cn3)cc2C)C1` [Compound 68, (R)—N-(2-(6-((1-Ethylpiperidin-3-yl)amino)-5-methylpyridazin-3-yl)-5-(trifluoromethyl)phenyl)-1H-imidazole-5-sulfonamide]: the EC50 fell in the range of 5 to 30 µM. To `CN1CCC[C@@H](Nc2cc(C(F)(F)F)c(-c3ccc(C(F)(F)F)c(N)c3N)nn2)C1` [Compound 101, 3-[6-[[(3R)-1-methyl-3-piperidyl]amino]-4-(trifluoromethyl)pyridazin-3-yl]-6-(trifluoromethyl)benzene-1,2-diamine] belongs 1 to 5 µM; to `Cc1cc(N[C@@H]2CCCN(C)C2)nnc1-c1ccc(C(F)(F)F)c2c1NS(=O)(=O)N2` [Compound 10, (R)-4-(4-Methyl-6-((1-methylpiperidin-3-yl)amino)pyridazin-3-yl)-7-(trifluoromethyl)-1,3-dihydrobenzo[c][1,2,5]thiadiazole 2,2-dioxide], 5 to 30 µM; to `Cc1cc(N[C@@H]2CCCN(C(C)C)C2)nnc1-c1ccc(C(F)(F)F)cc1NS(C)(=O)=O` [Compound 27], less than 0.5 µM. The figure for `Cc1cc(N[C@@H]2CCCN(CC(C)C)C2)nnc1-c1ccc(C(F)(F)F)cc1NS(C)(=O)=O` [Compound 46, (R)—N-(2-(6-((1-Isobutylpiperidin-3-yl)amino)-4-methylpyridazin-3-yl)-5-(trifluoromethyl)phenyl) methanesulfonamide] is 0.5 to 1 µM; for `Cc1cc(C(F)(F)F)cc(NS(C)(=O)=O)c1-c1ccc(N[C@@H]2CCCN(C)C2)nn1` [Compound 1, (R)—N-(3-methyl-2-(6-((1-methylpiperidin-3-yl)amino)pyridazin-3-yl)-5-(trifluoromethyl)phenyl) methanesulfonamide] it is 1 to 5 µM. As to `Cc1cc(N[C@@H]2CCCN(C)C2)nnc1-c1ccc(C(F)(F)F)cc1NS(C)(=O)=O` [Compound 4, (R)—N-(2-(4-Methyl-6-((1-methylpiperidin-3-yl)amino)pyridazin-3-yl)-5-(trifluoromethyl)phenyl) methanesulfonamide], the EC50 lay within 0.5 to 1 µM. The figure for `Cc1cc(N[C@@H]2CCCN(C)C2)nnc1-c1ccc(C(F)(F)F)c(N)c1N` [Compound 100, (R)-3-(4-methyl-6-((1-methylpiperidin-3-yl)amino)pyridazin-3-yl)-6-(trifluoromethyl)benzene-1,2-diamine] is less than 0.5 µM; for `Cc1cc(-c2ccc(C(F)(F)F)cc2NC(C)C)nnc1N[C@@H]1CCCN(C(C)C)C1` [Compound 115, 6-[2-(isopropylamino)-4-(trifluoromethyl)phenyl]-N-[(3R)-1-isopropyl-3-piperidyl]-4-methyl-pyridazin-3-amine] it is less than 0.5 µM.
